Where two headings read alike, the source gives them in different places. Starred links: 1 amine or outer side, 2 acyl side, 3 side chain; linkers in the order of their positions; H or OH if unused. Non-standard residues stand in square brackets, D forms with d. Residues, ends and D or L forms follow the SMILES beside them. *: point of attachment. NH(3-CONH2-4-OMe-phenyl) = COc1ccc(N*)cc1C(N)=O; 3Abz(6-OMe) = COc1ccc(N[*:1])cc1C(=O)[*:2]
Experiments:
fondaparinux (FONDAPX) = test: FXa chromogenic assay (absence of plasma), fondaparinux
[1] = tested on: unfractionated heparin (UFH); test: aPTT clotting assay, UFH 0.2 U/mL in plasma (Example 7); type: biochemical
Description: aPTT clotting Assay. Unfractionated heparin was mixed with plasma at a final concentration of 0.2 U/mL. […] The ACL Elite Hemostasis analyzer (Beckman Coulter™) was used to add aPTT reagent (HemosIL SynthASil) to supplemented plasma. Clotting was initiated by addition of CaCl2 and time to clot was recorded.

enoxaparin (ENOX) = test: FXa chromogenic assay (absence of plasma), enoxaparin
[2] = fondaparinux 0.02 μg/mL, absence of plasma
[3] = enoxaparin 0.1 μg/mL, absence of plasma

| SMILES | FONDAPX (FXa) EC50 (fondaparinux (FONDAPX); [2]) | UFH (aPTT) EC50 ([1]; UFH 0.2 U/mL in plasma) | ENOX (FXa) EC50 (enoxaparin (ENOX); [3]) | FONDAPX (FXa) EC50 (fondaparinux (FONDAPX)) [µg/mL] | UFH (aPTT) EC50 [1] [µg/mL] | ENOX (FXa) EC50 (enoxaparin (ENOX)) [µg/mL] |
| --- | --- | --- | --- | --- | --- | --- |
| COc1ccc(NC(=O)[C@H](CCCCCN)NC(=O)c2cc(NC(=O)[C@H](CCCCCN)NC(=O)c3cc(NC(=O)[C@H](CCCCCN)NC(=O)c4cc(NC(=O)[C@@H](N)CCCCCN)ccc4OC)ccc3OC)ccc2OC)cc1C(N)=O [Compound 98] | inactive | 3.14 µg/mL | 0.1731 µg/mL | – | – | – |
| COc1ccc(NC(=O)[C@H](CCCCN)NC(=O)c2cc(NC(=O)[C@H](CCCCN)NC(=O)c3cc(NC(=O)[C@H](CCCCN)NC(=O)c4cc(NC(=O)[C@@H](N)CCCCN)ccc4OC)ccc3OC)ccc2OC)cc1C(=O)O [Compound 96] | inactive | 3.59 µg/mL | 5.567 µg/mL | – | – | – |
| COc1ccc(NC(=O)[C@H](CCCNC(=N)N)NC(=O)c2cc(NC(=O)[C@H](CCCNC(=N)N)NC(=O)c3cc(NC(=O)[C@H](CCCNC(=N)N)NC(=O)c4cc(NC(=O)[C@@H](N)CCCNC(=N)N)ccc4OC)ccc3OC)ccc2OC)cc1C(N)=O [Compound 7] | 1.49 µg/mL | 1.84 µg/mL | 0.21 µg/mL | – | – | – |
| N=C(N)NCCCCC(=O)Nc1cc(C(F)(F)F)cc(NC(=O)c2cc(C(=O)Nc3cc(C(F)(F)F)cc(NC(=O)CCCCNC(=N)N)c3SCCN)ncn2)c1SCCN [Compound 6] | inactive | 29.11 µg/mL | 0.57 µg/mL | – | – | – |
| COc1ccc(NC(=O)[C@@H](CCCCN)NC(=O)c2cc(NC(=O)[C@@H](CCCCN)NC(=O)c3cc(NC(=O)[C@@H](CCCCN)NC(=O)c4cc(NC(=O)[C@H](N)CCCCN)ccc4OC)ccc3OC)ccc2OC)cc1C(N)=O [Compound 17] | 11.15 µg/mL | 2.33 µg/mL | 0.50 µg/mL | – | – | – |
| COc1ccc(NC(=O)[C@H](CCCCN)NC(=O)c2cc(NC(=O)[C@H](CCCCN)NC(=O)c3cc(NC(=O)[C@H](CCCCN)NC(=O)c4cc(NC(=O)[C@H](CCCCN)NC(C)=O)ccc4OC)ccc3OC)ccc2OC)cc1C(N)=O [Compound 28] | 3.21 µg/mL | 2.28 µg/mL | 0.23 µg/mL | – | – | – |
| COc1ccc(NC(=O)[C@@H](CCCNC(=N)N)NC(=O)c2cc(NC(=O)[C@@H](CCCNC(=N)N)NC(=O)c3cc(NC(=O)[C@@H](CCCNC(=N)N)NC(=O)c4cc(NC(=O)[C@H](N)Cc5c[nH]c6ccccc56)ccc4OC)ccc3OC)ccc2OC)cc1C(N)=O [Compound 71] | 0.86 µg/mL | 2.58 µg/mL | 0.87 µg/mL | – | – | – |
| COc1ccc(NC(=O)[C@H](CCCCN)NC(=O)c2cc(NC(=O)[C@H](CCCCN)NC(=O)c3cc(NC(=O)[C@H](CCCCN)NC(=O)c4cc(NC(=O)[C@@H](N)CCCCN)ccc4SC)ccc3OC)ccc2OC)cc1C(N)=O [Compound 130] | 5.47 µg/mL | 2.50 µg/mL | 0.3835 µg/mL | – | – | – |
| COc1ccc(NC(=O)[C@H](CCCCN)NC(=O)c2cc(NC(=O)[C@H](CCCCN)NC(=O)c3cc(NC(=O)[C@H](CCCCN)NC(=O)c4cc(NC(=O)[C@@H](N)CCCCN)ccc4OCC(=O)O)ccc3OC)ccc2OC)cc1C(N)=O [Compound 119] | 13.39 µg/mL | 11.56 µg/mL | 0.9421 µg/mL | – | – | – |
| COc1ccc(NC(=O)[C@H](N)CCCNC(=N)N)cc1C(=O)N[C@H](CCCNC(=N)N)C(=O)Nc1ccc(OC)c(C(=O)N[C@H](CCCNC(=N)N)C(=O)Nc2ccc(OC)c(C(=O)N[C@H](CCCNC(=N)N)C(=O)Nc3cccc(C(N)=O)c3)c2)c1 [Compound 67] | 5.19 µg/mL | 1.75 µg/mL | 0.33 µg/mL | – | – | – |
| COc1ccc(NC(=O)[C@@H](CCCNC(=N)N)NC(=O)c2cc(NC(=O)[C@@H](CCCNC(=N)N)NC(=O)[C@H](C)NC(=O)c3cc(NC(=O)[C@@H](CCCNC(=N)N)NC(=O)c4cc(NC(=O)[C@H](N)CCCNC(=N)N)ccc4OC)ccc3OC)ccc2OC)cc1C(N)=O [Compound 74] (H-[dR][3Abz(6-OMe)][dR][3Abz(6-OMe)]A[dR][3Abz(6-OMe)][dR]-{NH(3-CONH2-4-OMe-phenyl)}) | 47.76 µg/mL | 5.20 µg/mL | 5.13 µg/mL | – | – | – |
| COc1ccc(NC(=O)[C@H](CCCCN)NC(=O)c2cc(NC(=O)[C@H](CCCNC(N)=O)NC(=O)c3cc(NC(=O)[C@H](CCCCN)NC(=O)c4cc(NC(=O)[C@@H](N)CCCCN)ccc4OC)ccc3OC)ccc2OC)cc1C(N)=O [Compound 139] | 2.485 µg/mL | 2.46 µg/mL | 0.3196 µg/mL | – | – | – |
| COc1ccc(NC(=O)[C@@H](CCCNC(=N)N)NC(=O)c2cc(NC(=O)[C@H](C)NC(=O)[C@@H](CCCNC(=N)N)NC(=O)c3cc(NC(=O)[C@@H](CCCNC(=N)N)NC(=O)c4cc(NC(=O)[C@H](N)CCCNC(=N)N)ccc4OC)ccc3OC)ccc2OC)cc1C(N)=O [Compound 75] (H-[dR][3Abz(6-OMe)][dR][3Abz(6-OMe)][dR]A[3Abz(6-OMe)][dR]-{NH(3-CONH2-4-OMe-phenyl)}) | 44.99 µg/mL | 4.80 µg/mL | 3.71 µg/mL | – | – | – |
| COc1ccc(NC(=O)[C@H](CCCCN)NC(=O)c2cc(NC(=O)[C@H](CCCCN)NC(=O)c3cc(NC(=O)[C@H](C)NC(=O)c4cc(NC(=O)[C@@H](N)CCCCN)ccc4OC)ccc3OC)ccc2OC)cc1C(N)=O [Compound 77] | 2.47 µg/mL | 4.55 µg/mL | 0.61 µg/mL | – | – | – |
| COc1cc(OC)c(C(=O)N[C@H]2CC[C@H](NC(=O)c3cc(C(=O)NCCN(C)C)c(OCCNC(=N)N)cc3OCCNC(=N)N)CC2)cc1C(=O)N[C@H]1CC[C@H](NC(=O)c2cc(C(=O)NCCN(C)C)c(OCCNC(=N)N)cc2OCCNC(=N)N)CC1 [Compound 106] | >20 µg/mL | Inactive | 1.66 µg/mL | – | – | – |
| COc1ccc(NC(=O)[C@@H](CCCNC(=N)N)NC(=O)c2cc(NC(=O)[C@@H](CCCNC(=N)N)NC(=O)c3cc(NC(=O)[C@@H](CCCNC(=N)N)NC(=O)c4cc(NC(=O)[C@H](N)CCCNC(=N)N)ccc4OC)ccc3OC)ccc2OC)cc1C(N)=O [Compound 135] | 0.7596 µg/mL | 2.79 µg/mL | 0.1581 µg/mL | – | – | – |
| COc1ccc(NC(=O)[C@H](CCCCN)NC(=O)c2cc(NC(=O)[C@H](CCCCN)NC(=O)c3cc(NC(=O)[C@H](CCCCN)NC(=O)c4ccc(NC(=O)[C@@H](N)CCCCN)cc4)ccc3OC)ccc2OC)cc1C(N)=O [Compound 126] | >20 µg/mL | 9.07 µg/mL | 0.7187 µg/mL | – | – | – |
| COc1ccc(NC(=O)[C@H](CCCCN)NC(=O)c2cc(NC(=O)[C@H](CCCCN)NC(=O)c3cc(NC(=O)[C@H](CCCCN)NC(=O)c4cc(NC(=O)[C@@H](N)CCCCN)ccc4OC)ccc3OC)ccc2SC)cc1C(N)=O [Compound 133] | inactive | >10 µg/mL | >20 µg/mL | – | – | – |
| COc1cc(C(=O)Nc2cc(C(F)(F)F)cc(NC(=O)CCCCNC(=N)N)c2SCCN)c(OC)cc1C(=O)Nc1cc(C(F)(F)F)cc(NC(=O)CCCCNC(=N)N)c1SCCN [Compound 88] | 1.38 µg/mL | 4.30 µg/mL | 0.24 µg/mL | – | – | – |
| COc1ccc(NC(=O)[C@H](CCCNC(=N)N)NC(=O)c2cc(NC(=O)[C@H](CCCNC(=N)N)NC(=O)c3cc(NC(=O)[C@H](C)NC(=O)CCCCNC(=N)N)ccc3OC)ccc2OC)cc1C(N)=O [Compound 120] | 5.96 µg/mL | 9.62 µg/mL | 1.36 µg/mL | – | – | – |
| COc1ccc(NC(=O)[C@H](CCCCN)NC(=O)c2cc(NC(=O)[C@@H](N)CCCCN)ccc2OC)cc1C(=O)N[C@@H](CCCCN)C(=O)Nc1ccc(OC)c(C(=O)N[C@@H](CCCCN)C(=O)Nc2ccc(OC)c(C(=O)N[C@H](Cc3ccccc3)C(=O)O)c2)c1 [Compound 111] | >20 µg/mL | 2.54 µg/mL | 1.348 µg/mL | – | – | – |
| COc1ccc(NC(=O)[C@@H](CCCNC(=N)N)NC(=O)CCCCNC(=N)N)cc1C(=O)N[C@H](CCCNC(=N)N)C(=O)Nc1ccc(OC)c(C(=O)N[C@H](CCCNC(=N)N)C(=O)Nc2ccc(OC)c(C(=O)N[C@H](CCCNC(=N)N)C(=O)Nc3ccc(OCCNC(=N)N)c(C(N)=O)c3)c2)c1 [Compound 27] | 2.51 µg/mL | 2.19 µg/mL | 0.10 µg/mL | – | – | – |
| COc1ccc(NC(=O)[C@H](CCCCN)NC(=O)c2cc(NC(=O)[C@H](CCCCN)NC(=O)c3cc(NC(=O)[C@H](CCCCN)NC(=O)c4cc(NC(=O)[C@H](N)CCCCN)ccc4OC)ccc3OC)ccc2OC)cc1C(N)=O [Compound 122] | 6.037 µg/mL | 3.91 µg/mL | 0.3254 µg/mL | – | – | – |
| COc1ccc(NC(=O)[C@H](CCCCN)NC(=O)c2cc(NC(=O)[C@H](CCCCN)NC(=O)c3cc(NC(=O)[C@H](CCCNC(N)=O)NC(=O)c4cc(NC(=O)[C@@H](N)CCCCN)ccc4OC)ccc3OC)ccc2OC)cc1C(N)=O [Compound 138] | 2.332 µg/mL | 2.15 µg/mL | 0.3298 µg/mL | – | – | – |
| COc1ccc(NC(=O)[C@@H](CCCNC(N)=O)NC(=O)c2cc(NC(=O)[C@@H](CCCNC(=N)N)NC(=O)c3cc(NC(=O)[C@@H](CCCNC(N)=O)NC(=O)c4cc(NC(=O)[C@H](N)CCCNC(=N)N)ccc4OC)ccc3OC)ccc2OC)cc1C(N)=O [Compound 47] | – | – | – | 6.52 | 3.23 | 0.36 |
| COc1ccc(NC(=O)[C@H](CCCCN)NC(=O)c2cc(NC(=O)[C@@H](N)CCCCN)ccc2OC)cc1C(=O)N[C@@H](CCCCN)C(=O)Nc1ccc(SC)c(C(=O)N[C@@H](CCCCN)C(=O)Nc2ccc(SC)c(C(N)=O)c2)c1 [Compound 141] | inactive | inactive | inactive | – | – | – |
